Measured values taken from PubChem BioAssay (NCI).
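Results reflect a 48-hour exposure of cells in 96-well plates to compound at five concentrations. TGI marks complete inhibition of growth.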

Tests used:
Assay in all cases: NCI tumour cell line growth inhibition, 48 h
SK-MEL-5 melanoma = system: SK-MEL-5 melanoma
SF-268 CNS = system: SF-268 CNS
NCI-H226 lung = system: NCI-H226 lung
786-0 renal = system: 786-0 renal
MALME-3M melanoma = system: MALME-3M melanoma
HOP-92 NSCLC = system: HOP-92 NSCLC
HOP-62 NSCLC = system: HOP-62 NSCLC
OVCAR-5 ovarian = system: OVCAR-5 ovarian
M14 melanoma = system: M14 melanoma
MOLT-4 leukemia = system: MOLT-4 leukemia
CCRF-CEM leukemia = system: CCRF-CEM leukemia
SF-295 CNS = system: SF-295 CNS
HL-60(TB) leukemia = system: HL-60(TB) leukemia
NCI-H460 lung = system: NCI-H460 lung
DU-145 prostate = system: DU-145 prostate
ACHN renal = system: ACHN renal
SN12C renal = system: SN12C renal
OVCAR-3 ovarian = system: OVCAR-3 ovarian
RXF 393 renal = system: RXF 393 renal
K-562 leukemia = system: K-562 leukemia

SMILES | TGI (SK-MEL-5 melanoma) [µM] | TGI (SF-268 CNS) [µM] | TGI (NCI-H226 lung) [µM] | TGI (786-0 renal) [µM] | TGI (MALME-3M melanoma) [µM] | TGI (HOP-92 NSCLC) [µM] | TGI (HOP-62 NSCLC) [µM] | TGI (OVCAR-5 ovarian) [µM] | TGI (M14 melanoma) [µM] | TGI (MOLT-4 leukemia) [µM] | TGI (CCRF-CEM leukemia) [µM] | TGI (SF-295 CNS) [µM] | TGI (HL-60(TB) leukemia) [µM] | TGI (NCI-H460 lung) [µM] | TGI (DU-145 prostate) [µM] | TGI (ACHN renal) [µM] | TGI (SN12C renal) [µM] | TGI (OVCAR-3 ovarian) [µM] | TGI (RXF 393 renal) [µM] | TGI (K-562 leukemia) [µM]
CC1(C)S[C@@H]2[C@H](NC(=O)/C=C/c3ccccc3)C(=O)N2[C@H]1C(=O)O | > 100 | > 100 | > 100 | > 100 | > 100 | > 100 | > 100 | > 100 | > 100 | > 100 | > 100 | > 100 | > 100 | > 100 | > 100 | > 100 | > 100 | > 100 |  | 
COc1ccc(C(=O)c2ccc(-n3c4ccccc4c4ccc5c(c43)C(=O)C=CC5=O)cc2)cc1 | 12.9 | 2.33 | 69.4 | 1.3 |  | 8.66 | 28.7 | 40.3 | 7.45 | > 100 |  | 17.1 |  | 19.3 | > 21.8 | 1.8 | 4.01 | 2.68 | 16 | > 100
COc1cccc(-c2cc(=O)c3cccnc3[nH]2)c1 | 13.1 | > 100 |  | > 100 | > 100 | > 100 | > 100 | > 100 | > 100 | > 100 | > 100 | > 100 |  |  | > 100 | > 100 | > 100 | > 100 | > 100 | > 100
CC(=O)NNc1nc(C)c(C(/C=C/c2ccc(NC(C)=O)cc2)=N/NS(=O)(=O)c2ccc(C)cc2)s1 | > 100 | > 100 | > 100 | > 100 | > 100 | > 100 | > 100 | > 100 | > 100 | > 100 | > 100 | > 100 | > 100 | > 100 | > 100 | > 100 | > 100 | > 100 | > 100 | 
COc1ccc2c(c1)CC[C@@H]1[C@@H]2CC[C@]2(C)[C@@H](O)/C(=C/c3ccncc3)C[C@@H]12 | 21.4 | 28.2 | 44.7 | 31.7 | 29.9 | 28 | 37.3 | 30.7 | 30.4 | 26.4 | 81 | 29.4 | 39.2 | 27.3 | 41 | 67.2 | 61.3 | 39.3 | 17.9 | 
O=C(NC/C(Cl)=C/Cl)Nc1cccc2c1CCCC2 | > 100 | > 100 | > 100 | > 100 | > 100 | > 100 | > 100 | > 100 | > 100 | > 100 |  | > 100 |  | > 100 | > 100 | > 100 | > 100 | > 100 | > 100 | 
CC(C)(C)OC(=O)N/N=C(/N)c1ccccc1 | > 100 | > 100 | > 100 | > 100 | > 100 |  | > 100 | > 100 | > 100 | > 100 | > 100 | > 100 | > 100 | > 100 | > 100 | > 100 | > 100 | > 100 | > 100 | > 100
CCOC(=O)CC(N1CC1)N1CC1 | > 10 | > 10 | > 10 | > 10 | > 10 |  | > 10 | > 10 | > 10 | > 10 | > 10 | > 10 | > 10 | > 10 | > 10 | > 10 | > 10 | > 10 | > 10 | > 10
COc1ccccc1OC(=O)/C=C/c1ccccc1 | > 100 | > 100 | > 100 | > 100 | > 100 | > 100 | > 100 | > 100 | > 100 | > 100 |  | > 100 | > 100 | > 100 | > 100 | > 100 | > 100 | > 100 | > 100 | 
COC(=O)/C(=C\C(=O)c1ccc(Br)cc1)NN=C(c1ccccc1)c1ccccc1 | > 10 | > 10 |  | > 10 | > 10 | > 10 | > 10 |  | > 10 | > 10 | > 10 | > 10 | > 10 |  | > 10 |  | > 10 |  | > 10 | > 10
COP(=O)(C(/C=C/c1ccccc1)OC(C)=O)[C@@H]1CCCC[C@H]1N(CC(C)(C)C)C(C)=O (some centres not stated) | 27.3 | 40.8 | 27 | 35.8 | 33.4 |  | 42.3 | 78.9 | 28.8 | 27.7 | 67.2 | 39.9 | 41.3 | 28.6 | 32.5 | 30.7 | 30.2 | 31.9 | 22.1 | 53
O=[N+]([O-])c1ccc(N2N=C(c3ccc4ccccc4c3O)CC2c2ccc(Cl)cc2Cl)c([N+](=O)[O-])c1 (configuration not stated) | > 100 | > 100 | > 100 | > 100 | > 100 |  | > 100 | > 100 |  | 38 | 35.5 | > 100 | 77.4 | > 100 | > 100 | > 100 | > 100 | > 100 | > 100 | 35.5
CN(CC#N)C(=O)Cc1ccc([N+](=O)[O-])cc1 | > 10 | > 10 | > 10 | > 10 | > 10 |  | > 10 | > 10 | > 10 | > 10 | > 10 | > 10 | > 10 | > 10 | > 10 | > 10 | > 10 | > 10 | > 10 | > 10
O=c1cc(-c2ccccc2Cl)[nH]c2cc3c(cc12)OCO3 | 2.03 | > 58.9 | 0.689 | 29.8 | > 100 | 67.5 | 11.3 | > 100 | 24.3 | 2.33 | 0.381 | 3.03 | 0.0511 | 5.24 | > 18.8 | > 73.9 | 29.1 | 0.4 | 16.4 | 
N#CC(c1ccccc1)(c1ccccc1)[C@@H](c1ccccc1)[C@H](Cc1ccccc1)NS(=O)(=O)c1ccccc1 | > 100 | > 100 |  | > 100 | > 100 |  | > 100 | > 100 | > 100 | > 100 | > 100 | > 100 | > 100 | > 100 | > 100 | > 100 | > 100 | > 100 | > 100 | > 100
Cc1cc(Br)cc(C)c1NC(=O)C(=O)C1C(=O)C(CC2C(=O)c3ccccc3C2=O)C(=O)CC1(C)C (configuration not stated) | > 100 | > 100 | > 100 | > 100 |  | > 100 | > 100 | > 100 | > 100 | 74.5 | 95.7 | > 100 | > 100 | > 100 | > 100 | > 100 | > 100 | > 100 | > 100 | 
CCOC(=O)C(Cc1cn(S(=O)(=O)c2ccc(C)cc2)cn1)P(=O)(OCC)OCC (configuration not stated) | > 100 | > 100 | > 100 | > 100 | > 100 |  | > 100 | > 100 | > 100 | > 100 | > 100 | > 100 | > 100 | > 100 | > 100 | > 100 | > 100 | > 100 | > 100 | > 100
CC1(C)O[C@@H](CP(c2ccccc2)c2ccccc2)[C@H](CP(c2ccccc2)c2ccccc2)O1 | 19.4 | 25.3 | 51.1 | 22.8 | 20.9 | 27.1 | 44.6 | 54.7 | 22.7 | > 100 | > 100 | 57.7 |  | > 100 | > 100 | > 100 | 18.7 | 33.6 | 26.9 | 
CC1C(=O)C23OC[C@@]1(C)C1(O)CC[C@@H](C)[C@]21CC3=O (some centres not stated) | > 100 | > 100 | > 100 | > 100 | > 100 |  | > 100 | > 100 | > 100 | > 100 | > 100 | > 100 | > 100 | > 100 | > 100 | > 100 | > 100 | > 100 | > 100 | > 100
FC(F)(F)C1(C(F)(F)F)C2CCC3(CC(F)(F)C(F)(F)S3)C1C2 (configuration not stated) | > 100 | > 100 | > 100 | > 100 | 95.1 |  | > 100 | > 100 | > 100 | 46.4 | 60.9 | > 100 | 51.8 | > 100 | > 100 | 98.5 | > 100 | 35.9 | 84.3 | > 100
O=C(NNC(=O)c1ccccc1Cl)c1ccccc1O | > 100 | > 100 | 77.1 | > 100 | > 100 |  | > 100 | > 100 | > 100 | > 100 | > 100 | > 100 |  | > 100 | > 100 |  | > 100 | > 100 | > 100 | > 100
CCOC(=O)CCC(NC(=O)c1ccc(Oc2nc3ccccc3nc2C(=O)OCC)cc1)C(=O)OCC (configuration not stated) | > 100 | > 100 |  | > 100 |  | > 100 | > 100 | > 100 | > 100 | > 100 | > 100 | > 100 | > 100 | > 100 | > 100 | > 100 | > 100 | > 100 |  | 
Cc1ccccc1NC(=O)C(=O)Cc1cnc2ccccc2n1 | > 100 | > 100 | > 100 | > 100 | > 100 | > 100 |  | > 100 | > 100 | > 100 | > 100 | > 100 | > 100 | > 100 | > 100 | > 100 | > 100 | > 100 |  | > 100
CC(=O)O/C=C\OC1CCCC1 | > 100 | > 100 | > 100 | > 100 | > 100 | > 100 | > 100 |  | > 100 | > 100 | > 100 | > 100 | > 100 | > 100 | > 100 | > 100 |  | > 100 | > 100 | > 100
CCOC(=O)c1c(N2CCOCC2)[nH]c(=O)c(C(c2ccc(Cl)c([N+](=O)[O-])c2)c2c(O)c(C(=O)OCC)c(N3CCOCC3)[nH]c2=O)c1O | 74.5 | > 100 | > 100 | > 100 | > 100 | 69.4 | > 100 | > 100 | 58.5 | 57.8 | 40.4 | > 100 |  | > 100 | 55.8 | > 100 | 51 | 35.5 | > 100 | > 100
